Measurements: patent EP4461731A1, “LIGANDS OF THE M6A-RNA READERS” (Universität Zürich, priority 2023, dated 2024)
Where two headings read alike, the source gives them in different places.

What was measured:
[1] = test system: Cells; experiment: cells; details: 72 h
[2] = test system: Cells; details: read-out: Antiprolif. activity GI50; 72 h, CellTiter-Glo; cell line not named
[3] = read-out: Antiprolif. activity GI50, 72 h, CellTiter-Glo, cell line not named
[4] = read-out: Antiprolif. activity GI50

SMILES: CNc1nc(Cl)nc2c1ncn2Cc1cccc(C(=O)OC)c1 [ZA347, Methyl 3-((2-chloro-6-(methylamino)-9H-purin-9-yl)methyl)benzoate]
- GI50 [1, 3]: ≤ 10 µM

SMILES: CNc1nc(Cl)nc2c1ncn2Cc1cccc(Cl)c1 [ZA349, 2-chloro-9-(3-chlorobenzyl)-N-methyl-9H-purin-6-amine]
- GI50 [1, 4]: ≤ 10 µM

SMILES: CNc1nc(Cl)nc2c1ncn2Cc1cc(Cl)ccc1NS(C)(=O)=O [ZA400, N-(4-chloro-2-((2-chloro-6-(methylamino)-9H-purin-9-yl)methyl)phenyl) methanesulfonamide]
- GI50 [1, 3]: 31 µM
- GI50 [2]: 21 µM

SMILES: CNc1nc(Cl)nc2c1ncn2Cc1ccccc1NS(C)(=O)=O [ZA364, N-(2-((2-chloro-6-(methylamino)-9H-purin-9-yl)methyl)phenyl)methanesulfonamide]
- GI50 [1, 3]: 21 µM

SMILES: CNc1nc(Cl)nc2c1ncn2Cc1ccc(OC)c(Cl)c1 [FE150, 2-chloro-9-(3-chloro-4-methoxybenzyl)-N-methyl-9H-purin-6-amine]
- GI50 [1, 4]: ≤ 10 µM

SMILES: CNc1nc(Cl)nc2c1ncn2Cc1ccc(C(=O)OC)cc1 [ZA311, Methyl 4-((2-chloro-6-(methylamino)-9H-purin-9-yl)methyl)benzoate]
- GI50 [1, 4]: ≤ 10 µM
